Marks after values point to notes of the source that are not given here.
Tests used:
Format in all cases: cell-based
CB2 D351A/D354A [1] = molecular target: T1, CB2 D351A/D354A (Homo sapiens, UniProt P34972, D351A/D354A/Q63R); test: β-arrestin 2 translocation BRET assay, CB2 D351A/D354A mutant; details: for Span, β-arrestin 2 translocation, CB2 D351A/D354A: HEK 293 cells
Wild-type CB2 = Wild-type CB2 (Homo sapiens, UniProt P34972, Q63R); test: G protein dissociation BRET assay, wild-type CB2
CB2 D351A/D354A [2] = molecular target: T1, CB2 D351A/D354A; test: G protein dissociation BRET assay, CB2 D351A/D354A
[3] = molecular target: T2, CB2 D351A/D354A/D356A/D359A (Homo sapiens, UniProt P34972, D351A/D354A/D356A/D359A/Q63R); test: G protein dissociation BRET assay, CB2 D351A/D354A/D356A/D359A; details: HEK 293 cells
CB2 D356A/D359A [4] = molecular target: T3, CB2 D356A/D359A (Homo sapiens, UniProt P34972, D356A/D359A/Q63R); test: β-arrestin 2 translocation BRET assay, CB2 D356A/D359A mutant; details: for Span, β-arrestin 2 translocation, CB2 D356A/D359A: HEK 293 cells
[5] = molecular target: T2, CB2 D351A/D354A/D356A/D359A; test: β-arrestin 2 translocation BRET assay, CB2 D351A/D354A/D356A/D359A mutant; details: for Span, β-arrestin 2 translocation, CB2 D351A/D354A/D356A/D359A: HEK 293 cells
CB2 [6] = molecular target: T4, CB2 (Homo sapiens, UniProt P34972, Q63R); test: β-arrestin 2 translocation real-time BRET assay, wild-type CB2; details: for Span, β-arrestin 2 translocation to CB2 / Span, β-arrestin 2 translocation, wild-type CB2: HEK 293 cells
CB2 [7] = molecular target: T4, CB2; test: β-arrestin 1 translocation real-time BRET assay; details: HEK 293 cells
CB2 D356A/D359A [8] = molecular target: T3, CB2 D356A/D359A; test: G protein dissociation BRET assay, CB2 D356A/D359A
CB2 [9] = molecular target: T4, CB2; test: β-arrestin 2 translocation real-time BRET assay, wild-type CB2; details: for pEC50, β-arrestin 2 translocation to CB2: HEK 293 cells
CB2 [10] = molecular target: T4, CB2; test: β-arrestin 1 translocation real-time BRET assay; details: for pEC50, β-arrestin 1 translocation to CB2: HEK 293 cells

T3 sequence (P34972 whole entry Q63R/D356A/D359A): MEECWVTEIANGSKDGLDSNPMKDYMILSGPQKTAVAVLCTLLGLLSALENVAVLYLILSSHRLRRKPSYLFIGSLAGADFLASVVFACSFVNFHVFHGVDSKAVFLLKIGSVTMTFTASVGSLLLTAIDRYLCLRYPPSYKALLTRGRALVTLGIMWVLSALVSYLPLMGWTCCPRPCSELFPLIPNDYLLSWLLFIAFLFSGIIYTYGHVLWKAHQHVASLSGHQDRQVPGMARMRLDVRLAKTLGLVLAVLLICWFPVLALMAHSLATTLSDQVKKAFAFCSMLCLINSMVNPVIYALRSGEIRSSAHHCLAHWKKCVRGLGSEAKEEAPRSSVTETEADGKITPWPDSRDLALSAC
T1 sequence (P34972 whole entry Q63R/D351A/D354A): as the sequence (P34972 whole entry Q63R/D356A/D359A) above, with D351A, D354A, A356D, A359D counted along it
T4 sequence (P34972 whole entry Q63R): as the sequence (P34972 whole entry Q63R/D356A/D359A) above, with A356D, A359D counted along it
Wild-type CB2, sequence (P34972 whole entry Q63R): as the sequence (P34972 whole entry Q63R/D356A/D359A) above, with A356D, A359D counted along it
T2 sequence (P34972 whole entry Q63R/D351A/D354A/D356A/D359A): as the sequence (P34972 whole entry Q63R/D356A/D359A) above, with D351A, D354A counted along it

CCCCCCC(C)(C)c1ccc([C@@H]2C[C@H](O)CC[C@H]2CCCO)c(O)c1 [CP55940]
Span, β-arrestin 2 translocation, CB2 D351A/D354A (CB2 D351A/D354A [1]; coexpression of GRK2): 147.34 (2.60) ^* ΔBRET.s
Span, β-arrestin 2 translocation, CB2 D351A/D354A (CB2 D351A/D354A [1]; coexpression of GRK3): 147.06 (10.88) ΔBRET.s
Span, β-arrestin 2 translocation, CB2 D351A/D354A (CB2 D351A/D354A [1]; mock): 132.61 (6.99)^◊ ΔBRET.s
reduction in efficacy of β-arrestin 2 translocation versus wild-type CB2 (CB2 D351A/D354A [1]; mock): 41%
attenuation of G protein dissociation by addition of β-arrestin 2 (Wild-type CB2; 1-μM CP55940): over 50%
G protein dissociation at 1 μM CP55940 (Wild-type CB2; HEK 293 cells, + GRK3): −226.64 (5.63) ΔBRET.s
G protein dissociation at 1 μM CP55940 (Wild-type CB2; HEK 293 cells, + β-arrestin 2): −97.47 (3.67) ΔBRET.s
G protein dissociation at 1 μM CP55940, % mock (Wild-type CB2; HEK 293 cells, + β-arrestin 2): 45.28 (2.15) % mock
G protein dissociation at 1 μM CP55940 (Wild-type CB2; HEK 293 cells, + β-arrestin 2 + GRK3): −91.65 (4.04) ΔBRET.s
Span, G protein dissociation (Wild-type CB2; HEK 293 cells, mock): −216.50 (8.58) ΔBRET.s
attenuation of G protein dissociation by addition of β-arrestin 2 (CB2 D351A/D354A [2]; 1-μM CP55940): over 50%
G protein dissociation at 1 μM CP55940 (CB2 D351A/D354A [2]; HEK 293 cells, + β-arrestin 2): −97.62 (4.27) ΔBRET.s
G protein dissociation at 1 μM CP55940, % mock (CB2 D351A/D354A [2]; HEK 293 cells, + β-arrestin 2): 47.86 (1.69) % mock
Span, G protein dissociation (CB2 D351A/D354A [2]; HEK 293 cells, mock): −204.02 (5.54) ΔBRET.s
G protein dissociation at 1 μM CP55940 ([3]; + GRK3): −267.49 (4.62)^ⱡ ΔBRET.s
G protein dissociation at 1 μM CP55940 ([3]; + β-arrestin 2): −165.31 (10.19)^◊ ΔBRET.s
G protein dissociation at 1 μM CP55940, % mock ([3]; + β-arrestin 2): 67.29 (4.02)^◊ % mock
G protein dissociation at 1 μM CP55940 ([3]; + β-arrestin 2 + GRK3): −155.77 (3.82)^◊ ΔBRET.s
Span, G protein dissociation ([3]; mock): −246.10 (6.75) ^* ΔBRET.s
Span, β-arrestin 2 translocation, CB2 D356A/D359A (CB2 D356A/D359A [4]; coexpression of GRK2): 161.84 (5.06) ΔBRET.s
Span, β-arrestin 2 translocation, CB2 D356A/D359A (CB2 D356A/D359A [4]; coexpression of GRK3): 188.04 (8.90) ΔBRET.s
Span, β-arrestin 2 translocation, CB2 D356A/D359A (CB2 D356A/D359A [4]; mock): 170.18 (6.70)^◊ ΔBRET.s
reduction in efficacy of β-arrestin 2 translocation versus wild-type CB2 (CB2 D356A/D359A [4]; mock): 24%
Span, β-arrestin 2 translocation, CB2 D351A/D354A/D356A/D359A ([5]; coexpression of GRK2): 194.18 (13.37) ^* ΔBRET.s
Span, β-arrestin 2 translocation, CB2 D351A/D354A/D356A/D359A ([5]; coexpression of GRK3): 180.16 (13.23) ^* ΔBRET.s
Span, β-arrestin 2 translocation, CB2 D351A/D354A/D356A/D359A ([5]; mock): 142.57 (8.39)^◊ ΔBRET.s
increase of β-arrestin 2 translocation response versus mock ([5]; coexpression of GRK2): 36%
increase of β-arrestin 2 translocation response versus mock ([5]; coexpression of GRK3): 26%
reduction of β-arrestin 2 translocation response versus wild-type CB2 ([5]; mock): 36%
Span, β-arrestin 2 translocation to CB2 (CB2 [6]; coexpression of GRK1, Table 2): 183.2 (11.32) ΔBRET.s
Span, β-arrestin 2 translocation to CB2 (CB2 [6]; coexpression of GRK2, Table 2): 164.3 (16.29) ^* ΔBRET.s
Span, β-arrestin 2 translocation, wild-type CB2 (CB2 [6]; coexpression of GRK2, Table 3 (mutant experiments)): 174.54 (11.90) ^* ΔBRET.s
Span, β-arrestin 2 translocation to CB2 (CB2 [6]; coexpression of GRK3, Table 2): 155.0 (9.91) ^* ΔBRET.s
Span, β-arrestin 2 translocation, wild-type CB2 (CB2 [6]; coexpression of GRK3, Table 3 (mutant experiments)): 210.00 (2.53) ^* ΔBRET.s
Span, β-arrestin 2 translocation to CB2 (CB2 [6]; coexpression of GRK4, Table 2): 176.9 (8.00) ΔBRET.s
Span, β-arrestin 2 translocation to CB2 (CB2 [6]; coexpression of GRK5, Table 2): 156.0 (6.71) ^* ΔBRET.s
Span, β-arrestin 2 translocation to CB2 (CB2 [6]; coexpression of GRK6, Table 2): 160.6 (8.71) ΔBRET.s
Span, β-arrestin 2 translocation to CB2 (CB2 [6]; mock (no GRK), Table 2): 190.2 (12.38) ΔBRET.s
Span, β-arrestin 2 translocation, wild-type CB2 (CB2 [6]; mock, Table 3 (mutant experiments)): 222.91 (6.17) ΔBRET.s
lowering of efficacy of β-arrestin 2 translocation by GRK coexpression (CB2 [6]; coexpression of GRK2, GRK3 and GRK5 versus mock): 10–20%
Span, β-arrestin 1 translocation to CB2 (CB2 [7]; coexpression of GRK1): 86.32 (2.74) ^* ΔBRET.s
Span, β-arrestin 1 translocation to CB2 (CB2 [7]; coexpression of GRK2): 79.90 (3.34) ^* ΔBRET.s
Span, β-arrestin 1 translocation to CB2 (CB2 [7]; coexpression of GRK3): 79.51 (2.33) ^* ΔBRET.s
Span, β-arrestin 1 translocation to CB2 (CB2 [7]; coexpression of GRK4): 64.47 (1.90) ΔBRET.s
Span, β-arrestin 1 translocation to CB2 (CB2 [7]; coexpression of GRK5): 70.53 (2.52) ΔBRET.s
Span, β-arrestin 1 translocation to CB2 (CB2 [7]; coexpression of GRK6): 66.73 (3.12) ΔBRET.s
Span, β-arrestin 1 translocation to CB2 (CB2 [7]; mock (no GRK)): 63.07 (4.10) ΔBRET.s
attenuation of G protein dissociation by addition of β-arrestin 2 (CB2 D356A/D359A [8]; 1-μM CP55940): over 50%
G protein dissociation at 1 μM CP55940 (CB2 D356A/D359A [8]; HEK 293 cells, + β-arrestin 2): −91.91 (4.94) ΔBRET.s
G protein dissociation at 1 μM CP55940, % mock (CB2 D356A/D359A [8]; HEK 293 cells, + β-arrestin 2): 49.37 (2.63) % mock
Span, G protein dissociation (CB2 D356A/D359A [8]; HEK 293 cells, mock): −186.32 (4.70) ^* ΔBRET.s

COC(=O)[C@@H](NC(=O)c1nn(Cc2ccc(F)cc2)c2ccccc12)C(C)C [AMB-FUBINACA]
pEC50, β-arrestin 2 translocation to CB2 (CB2 [9]; coexpression of GRK1, Table 2): 8.03 (0.06)
pEC50, β-arrestin 2 translocation to CB2 (CB2 [9]; coexpression of GRK2, Table 2): 8.28 (0.05) ^*
pEC50, β-arrestin 2 translocation to CB2 (CB2 [9]; coexpression of GRK3, Table 2): 8.17 (0.11)
pEC50, β-arrestin 2 translocation to CB2 (CB2 [9]; coexpression of GRK4, Table 2): 8.13 (0.03)
pEC50, β-arrestin 2 translocation to CB2 (CB2 [9]; coexpression of GRK5, Table 2): 8.07 (0.07)
pEC50, β-arrestin 2 translocation to CB2 (CB2 [9]; coexpression of GRK6, Table 2): 8.12 (0.04)
pEC50, β-arrestin 2 translocation to CB2 (CB2 [9]; mock (no GRK), Table 2): 8.15 (0.06)
β-arrestin 2 translocation to CB2 (in words) (CB2 [9]; absence of exogenous GRKs): submaximal translocation
pEC50, β-arrestin 1 translocation to CB2 (CB2 [10]; coexpression of GRK1): 7.97 (0.13)
pEC50, β-arrestin 1 translocation to CB2 (CB2 [10]; coexpression of GRK2): 8.16 (0.09)
pEC50, β-arrestin 1 translocation to CB2 (CB2 [10]; coexpression of GRK3): 8.26 (0.07) ^*
pEC50, β-arrestin 1 translocation to CB2 (CB2 [10]; coexpression of GRK4): 7.98 (0.18)
pEC50, β-arrestin 1 translocation to CB2 (CB2 [10]; coexpression of GRK5): 7.97 (0.11)
pEC50, β-arrestin 1 translocation to CB2 (CB2 [10]; coexpression of GRK6): 8.01 (0.18)
pEC50, β-arrestin 1 translocation to CB2 (CB2 [10]; mock (no GRK)): 7.94 (0.10)
β-arrestin 1 translocation to CB2 (in words) (CB2 [10]; absence of exogenous GRKs): submaximal translocation
Span, β-arrestin 2 translocation to CB2 (CB2 [6]; coexpression of GRK1, Table 2): 134.2 (11.15) ΔBRET.s
Span, β-arrestin 2 translocation to CB2 (CB2 [6]; coexpression of GRK2, Table 2): 123.2 (9.45) ΔBRET.s
Span, β-arrestin 2 translocation to CB2 (CB2 [6]; coexpression of GRK3, Table 2): 119.0 (9.10) ΔBRET.s
Span, β-arrestin 2 translocation to CB2 (CB2 [6]; coexpression of GRK4, Table 2): 126.6 (9.03) ΔBRET.s
Span, β-arrestin 2 translocation to CB2 (CB2 [6]; coexpression of GRK5, Table 2): 114.6 (5.98) ΔBRET.s
Span, β-arrestin 2 translocation to CB2 (CB2 [6]; coexpression of GRK6, Table 2): 125.8 (10.37) ΔBRET.s
Span, β-arrestin 2 translocation to CB2 (CB2 [6]; mock (no GRK), Table 2): 123.9 (8.36) ΔBRET.s
Span, β-arrestin 1 translocation to CB2 (CB2 [7]; coexpression of GRK1): 47.12 (3.44) ^* ΔBRET.s
Span, β-arrestin 1 translocation to CB2 (CB2 [7]; coexpression of GRK2): 45.12 (2.90) ^* ΔBRET.s
Span, β-arrestin 1 translocation to CB2 (CB2 [7]; coexpression of GRK3): 46.69 (1.39) ^* ΔBRET.s
Span, β-arrestin 1 translocation to CB2 (CB2 [7]; coexpression of GRK4): 35.06 (2.32) ΔBRET.s
Span, β-arrestin 1 translocation to CB2 (CB2 [7]; coexpression of GRK5): 38.17 (1.55) ΔBRET.s
Span, β-arrestin 1 translocation to CB2 (CB2 [7]; coexpression of GRK6): 44.72 (3.21) ^* ΔBRET.s
Span, β-arrestin 1 translocation to CB2 (CB2 [7]; mock (no GRK)): 29.34 (2.43) ΔBRET.s

— publication PMC12591375 (British journal of pharmacology, 2022)
